Reference: ChEMBL document CHEMBL1139627, “A new orally bioavailable dual adenosine A2B/A3 receptor antagonist with therapeutic potential” (Bioorg Med Chem Lett, 2005)

Assays:
Adenosine receptor A2a = Adenosine receptor A2a (Homo sapiens, UniProt P29274); assay: Displacement of [3H]ZM-241,385 from human adenosine A2a receptors transfected in HEK 293 cells; type: cell-based, HEK293
[1] = target: T1, Adenosine receptor A2b (Homo sapiens) (UniProt P29275); assay: Inhibition of luciferase production elicited by NECA by compound in CHO cells transfected with human adenosine A2b receptor and a luciferase expressing reporter plasmid in a reporter gene assay; type: cell-based
T1 sequence (whole entry): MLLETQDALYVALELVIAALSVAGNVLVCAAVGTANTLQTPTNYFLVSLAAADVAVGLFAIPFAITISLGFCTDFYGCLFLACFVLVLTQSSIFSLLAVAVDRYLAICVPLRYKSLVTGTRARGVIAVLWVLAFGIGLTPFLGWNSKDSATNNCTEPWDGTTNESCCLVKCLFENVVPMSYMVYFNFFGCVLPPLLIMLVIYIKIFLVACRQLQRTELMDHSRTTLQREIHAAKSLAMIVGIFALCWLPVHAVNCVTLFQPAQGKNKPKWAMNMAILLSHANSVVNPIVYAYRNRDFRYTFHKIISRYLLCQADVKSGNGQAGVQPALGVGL

Adenosine receptor A3 = target: T2, Adenosine receptor A3 (Homo sapiens, UniProt P0DMS8); assay: Displacement of [125I]-AB-MECA from human adenosine A3 receptors transfected in CHO cells; type: cell-based
T2 sequence (P0DMS8 whole entry): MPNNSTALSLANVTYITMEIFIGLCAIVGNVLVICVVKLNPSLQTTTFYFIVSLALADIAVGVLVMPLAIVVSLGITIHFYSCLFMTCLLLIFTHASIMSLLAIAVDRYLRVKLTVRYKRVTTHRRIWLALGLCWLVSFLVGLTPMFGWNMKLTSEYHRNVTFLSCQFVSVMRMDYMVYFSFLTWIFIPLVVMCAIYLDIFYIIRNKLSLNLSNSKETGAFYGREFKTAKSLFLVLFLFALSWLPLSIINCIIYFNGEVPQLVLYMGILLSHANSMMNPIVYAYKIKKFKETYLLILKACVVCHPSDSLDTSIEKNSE

Adenosine receptor A1 = target: T3, Adenosine receptor A1 (Homo sapiens, UniProt P30542); assay: Displacement of [3H]DPCPX from human adenosine A1 receptors transfected in CHO cells; type: cell-based
T3 sequence (P30542 whole entry): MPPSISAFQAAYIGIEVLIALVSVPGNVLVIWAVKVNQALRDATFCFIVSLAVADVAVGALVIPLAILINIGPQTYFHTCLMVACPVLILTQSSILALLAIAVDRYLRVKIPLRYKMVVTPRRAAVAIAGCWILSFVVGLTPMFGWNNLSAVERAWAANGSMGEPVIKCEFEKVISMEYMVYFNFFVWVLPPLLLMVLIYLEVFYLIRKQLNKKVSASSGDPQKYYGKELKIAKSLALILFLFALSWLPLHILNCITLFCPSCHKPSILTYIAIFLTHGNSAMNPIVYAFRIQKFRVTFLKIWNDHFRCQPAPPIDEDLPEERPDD

[2] = Maximum concentration in wistar rat at 1 mL/kg concentration of compound after oral administration; type: ADME, organism-based; parameters: dose 1 mL/kg, route oral; settings: in vivo
[3] = Half life of trhe compound after oral administration at 1 mL/kg concentration in wistar rat; type: ADME, organism-based; settings: in vivo
[4] = Volume abserved at study state after intra venous administration of 2:1 PEG200/0.1 M phosphate buffer at 0.1 mL/kg concentration in wistar rat; type: ADME, organism-based; settings: in vivo, iv, read-out: Vss
[5] = Half life in wistar rat was determined by intra venous administration of 2:1 PEG200/0.1 M phosphate buffer at 0.1 mL/kg concentration; type: ADME; settings: in vivo, iv
[6] = Clearance in wistar rat was determined by intra venous administration of 2:1 PEG200/0.1 M phosphate buffer at 0.1 mL/kg concentration; type: ADME, organism-based; settings: in vivo, iv
[7] = Time to reach Cmax after oral administration at 1 mL/kg concentration in wistar rat; type: ADME, organism-based; settings: in vivo
[8] = Bioavailability of compound after oral administration at 1 mL/kg concentration in wistar rat; type: ADME, organism-based; settings: in vivo, read-out: BAV

Adenosine receptor A2a, sequence (P29274 whole entry): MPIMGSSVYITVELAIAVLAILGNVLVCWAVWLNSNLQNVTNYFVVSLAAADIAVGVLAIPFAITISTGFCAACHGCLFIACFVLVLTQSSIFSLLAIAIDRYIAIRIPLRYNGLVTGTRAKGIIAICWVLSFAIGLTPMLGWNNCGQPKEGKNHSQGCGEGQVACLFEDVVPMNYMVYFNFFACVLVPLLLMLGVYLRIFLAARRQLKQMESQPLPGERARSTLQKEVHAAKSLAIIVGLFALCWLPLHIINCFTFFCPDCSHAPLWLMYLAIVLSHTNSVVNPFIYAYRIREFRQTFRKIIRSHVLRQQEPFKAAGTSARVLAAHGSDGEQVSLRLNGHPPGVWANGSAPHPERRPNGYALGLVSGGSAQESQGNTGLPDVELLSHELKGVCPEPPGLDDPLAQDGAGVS

Structure (SMILES)	Ki (Adenosine receptor A2a)	Kb [1]	Ki (Adenosine receptor A3)	Ki (Adenosine receptor A1)	Cmax [2]	half-life [3]	Vd [4]	half-life [5]	clearance [6]	Tmax [7]	bioavailability [8]
Cc1cccc(Nc2nc(-c3cccc(C#N)c3)c(-n3ccnc3)s2)n1	2.7 µM	0.092 µM	0.044 µM	0.008 µM							
N#Cc1cccc(-c2nc(Nc3cccnc3)sc2-n2ccnc2)c1	2.7 µM	0.092 µM	0.124 µM	0.56 µM							
Cc1cccc(Nc2nc(-c3cccc(C#N)c3)c(-n3cncn3)s2)n1	> 10 µM	0.02 µM	0.037 µM	> 10 µM							
N#Cc1cccc(-c2nc(Nc3ccncc3)sc2-n2cncn2)c1	4.16 µM	0.062 µM	0.304 µM								
Cc1cccc(Nc2nc(-c3cccc(C#N)c3)c(-n3ccnc3C)s2)n1	0.175 µM	0.01 µM	0.419 µM	0.224 µM							
Cc1nccn1-c1sc(Nc2cnccn2)nc1-c1cccc(C#N)c1	1.67 µM	0.003 µM	0.01 µM	0.197 µM	560 nM	191 min	3.02 L/kg	29 min	94.4 mL/min/kg	39.3 min	30.2%

The remaining compounds from weak to strong by Ki (Adenosine receptor A2a), led by results:

Ki (Adenosine receptor A2a)	Kb [1]	Ki (Adenosine receptor A3)	Ki (Adenosine receptor A1)	Cmax [2]	half-life [3]	Vd [4]	half-life [5]	clearance [6]	Tmax [7]	bioavailability [8]	Structure (SMILES)
5.61 µM	0.365 µM	0.134 µM	2.84 µM								CC(=O)Nc1nc(-c2cccc(C#N)c2)c(-n2cncn2)s1
3.58 µM	0.012 µM		2.09 µM								N#Cc1cccc(-c2nc(Nc3cnccn3)sc2-n2cncn2)c1
2.57 µM	0.086 µM	0.698 µM	1.53 µM								N#Cc1cccc(-c2nc(Nc3cccnc3)sc2-n2cncn2)c1
2.02 µM	0.053 µM	0.024 µM	1.76 µM								N#Cc1cccc(-c2nc(Nc3ccccn3)sc2-n2cncn2)c1
0.349 µM	0.007 µM	0.011 µM	0.046 µM								N#Cc1cccc(-c2nc(Nc3cnccn3)sc2-n2ccnc2)c1
